Data published in patent publication US20250319206A1, “CRISPR/CAS GENE EDITING OF NEH4 AND/OR NEH5 DOMAINS IN NRF2” (Christina Care Gene Editing Institute, Inc., priority 2024, published 2025).

Assays:
[1] = system: NRF2; assay: NRF2 western blot in Panc-1 cells; assay type: cell-based, Human; details: edited Panc-1 populations vs unedited, GAPDH loading control
Description: Panc-1 cell pellets were collected using a standard RIPA lysis buffer containing protease inhibitor cocktail. Total protein concentration of collected cells was then determined using BCA Protein Assay kit (Pierce, Rockford, IL, USA). The samples were boiled at 95° C. for 10 minutes and then underwent SDS-PAGE on a 10% Mini-PROTEAN TGX Stain-free Protein Gel (BioRad, Cat. 4568033) for 90 min at 100 V. The gel was then transferred to a nitrocellulose membrane using Trans-Blot Turbo Transfer Systems (BioRad, Hercules, CA, USA) with Trans-Blot Turbo RTA Mini 0.2 μm Nitrocellulose Transfer Kit (BioRad Cat. 1704158), mixed molecular weight program, 10 minutes. The blot was placed in 5% milk and blocked at room temperature on shaker for 2 hours. Incubation in primary NRF2 antibody was done overnight at 4° C. on shaker (1:1,000, Abcam ab62352). Membrane was then incubated at room temperature on shaker for 1 hour in NRF2 secondary (1:10,000, Abcam ab205718). The SuperSignal West Dura Extended Duration ECL (Pierce) kit was used on the LI-COR Odyssey FC to visualize bands. […]

[2] = system: Panc-1 cells; assay: Cell viability with gemcitabine, CellTiter-Glo 2.0, Panc-1 cells; assay type: cell-based, Human; details: naïve (unedited) Panc-1 cells, 72 hours
Description: Wildtype and transfected Panc-1 cells were plated to 24 well plates (n=5) at 50,000 cells per well and placed in incubator for 24 hours. The cells were then treated with either Gemcitabine (Selleckchem, Cat. S1714) or DMSO (Thermo Fisher, Cat. D12345). Cells treated with Gemcitabine were treated at one of the following concentrations: 0 μM, 2.5 μM, 5 μM, 25 μM while cells treated with DMSO were treated at: 0%, 0.025%, 0.05%, or 0.25%. Cells remained in Gemcitabine or DMSO for 72 hours before being evaluated using CellTiter-Glo 2.0 Cell Viability Assay (Promega, Cat. G9241).
Since our long-term objective is to develop an effective genetic treatment that would augment standard care, we decided to examine the possibility that we could restore sensitivity to gemcitabine by genetic editing of NRF2 in gemcitabine resistant Panc1 cells. We are using gemcitabine as a selection system to determine if gene editing at some level, can help restore tumor cell killing. We established the kill curve of Panc1 unedited cells by gemcitabine under our standard reaction conditions to serve as a baseline. […] Again, after 72 hours, each cell population was exposed to gemcitabine for an additional 72 hours and thereafter cell viability of the treated and untreated cells was measured using the Cell Titer 2.0 viability assay (Promega, Madison, WI, USA). […]

Compound: sg5: gRNA targeting exon 3 of NRF2; CCTCATTGTCATCTACAAAC GGG (guide CCTCATTGTCATCTACAAACGGG; listed as DNA, chemistry not given here)
- NRF2 protein knock down [1]: significant knockdown of protein

Compound: Nc1ccn([C@@H]2O[C@H](CO)[C@@H](O)C2(F)F)c(=O)n1 [gemcitabine, reference compound]
- concentration of drug to achieve 75% killing [2]: ~100 µM
